Data as given in US11857535B2, “Methods of treating mutant lymphomas” (Kymera Therapeutics, Inc., priority 2020, dated 2024).

Assays:
OCI-Ly10 = assay: CTG cell viability assay - OCI-Ly10; assay type: cell-based; details: Homo sapiens, 96 h; OCI-Ly10, 4 days
Protocol: Compound-mediated viability effect on OCI-Ly10 or SUDHL-2 was quantitatively determined using the CellTiter-Glo® Luminescent Cell Viability Assay kit from Promega (Catalog number G7570) following manufacturer's recommended procedures. Briefly, OCI-Ly10 or SUDHL-2 cells were seeded into 384 well plates (Grenier Bio-One, Catalog number 781080) with a density of 10,000 cells per well. Compounds were then added to the assay plate with final top concentration of 10 μM and 1:3 dilution series with total of 9 doses. The final DMSO concentration was normalized to 0.2%. The assay plates were incubated at 37° C. for 4 days under 5% CO2. Then the assay plate was equilibrated at room temperature for 10 minutes. To determine cell viability, 30 μL CellTiter Glo reagent was added to each well and the assay plate was centrifuged at 1000 rpm for 30 second, incubated at room temperature for 10 min, and analyzed by detecting the luminescence using a multimode plate reader (EnVision 2105, PerkinElmer). The data was then analyzed by software Prism 7.0 from GraphPad and the dose response curves were fit using a three-parameter logistic equation to calculate IC50.

IRAK4 = molecular target: T1, IRAK4 (Homo sapiens, UniProt Q9NWZ3); assay: IRAK4 MSD degradation in OCI-Ly10; assay type: cell-based; details: FIG. 1
T1 construct: endogenous in cells; host or cells: OCI-Ly10
T1 sequence (Q9NWZ3 1-460): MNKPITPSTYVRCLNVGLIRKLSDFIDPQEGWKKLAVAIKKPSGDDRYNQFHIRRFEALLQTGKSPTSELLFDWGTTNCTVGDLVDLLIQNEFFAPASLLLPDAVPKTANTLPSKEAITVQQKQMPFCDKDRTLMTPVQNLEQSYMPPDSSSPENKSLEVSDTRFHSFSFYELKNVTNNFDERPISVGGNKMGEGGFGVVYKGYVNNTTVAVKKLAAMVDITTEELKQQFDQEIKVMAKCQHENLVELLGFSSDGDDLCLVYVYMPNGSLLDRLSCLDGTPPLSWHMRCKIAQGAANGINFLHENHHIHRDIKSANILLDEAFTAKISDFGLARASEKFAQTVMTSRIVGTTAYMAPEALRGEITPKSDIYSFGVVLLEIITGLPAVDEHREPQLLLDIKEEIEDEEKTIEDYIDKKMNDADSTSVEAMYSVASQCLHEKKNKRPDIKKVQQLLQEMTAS
Protocol: Degradation of IRAK4 in OCI-Ly10 was quantitatively measured using Meso Scale Discovery technology. OCI-Ly10 cells were seeded in 96-well plates (Corning 3799) with a density of 300,000 cells per well in 100 μL fresh media. Compounds were then added to the assay plates with a final top concentration of 1 to 10 μM in a 1:3 dilution series with total of 8 doses. The assay plates were then incubated for 4 to 24 hours at 37° C. under 5% CO2. The assay plates were then centrifuged for 5 minutes and the cell pellets were treated with 100 μL/well RIPA lysis buffer (Boston BioProducts BP-115D) with proteinase inhibitors. To prepare MSD assay plates (Meso Scale Discovery Catalog number L15XA-3), the plates were coated with 2 μg/mL capture antibody (mouse Anti-IRAK4 antibody [2H9], ab119942) in PBS, at 40 μL/well. The plates were then incubated overnight at 4° C., washed 3 times with 150 μL/well TBST buffer (Cell Signaling Technology, Catalog number 9997S) and blocked with 150 μL/well blocking buffer (Meso Scale Discovery Catalog number R93BA-4). Cell lysates were then added to MSD assay plates and the plates were incubated at room temperature for 1 hour. The plates were then washed 3 times with 150 μL/well TBST buffer and […] primary detection antibody (rabbit Anti-IRAK4 antibody [Y279], from Abcam. Catalog number ab32511, 1 μg/mL). The assay plates were then incubated at room temperature for 1 hour, washed 3 times with 150 μL/well TBST buffer and 25 μL/well secondary detection antibody, SULFO-TAG anti-rabbit antibody were added (anti rabbit antibody from Meso Scale Discovery, Catalog number R32AB-1, 1 μg/mL). The assay plates were then incubated at room temperature for 1 hour, washed 3 times with 150 μL/well TBST buffer, and 150 μL/well MSD reading buffer (Meso Scale Discovery catalog number R92TC-2) was added. The plates were then analyzed by a MSD reader (Meso Scale Discovery, Model Quick Plex SQ 120). The data was then analyzed by software Prism 7.0 from GraphPad and the dose-depended IRAK4 degradation were fit using a three-parameter logistic equation to calculate DC50.

`CC(C)(O)c1cc2nc([C@H]3CC[C@H](CN4CC5(CC(CCNc6cccc7c6C(=O)N(C6CCC(=O)NC6=O)C7=O)C5)C4)CC3)sc2cc1NC(=O)c1cccc(C(F)(F)F)n1` (some centres unmarked) [Compound A, N-(2-((1r,4r)-4-((6-(2-((2-(2,6-dioxopiperidin-3-yl)-1,3-dioxoisoindolin-4-yl)amino)ethyl)-2-azaspiro[3.3]heptan-2-yl)methyl)cyclohexyl)-5-(2-hydroxypropan-2-yl)benzo[d]thiazol-6-yl)-6-(trifluoromethyl)picolinamide] was tested, and the IC50 (OCI-Ly10) was less than 50 nM and the “IRAK4 degradation associated with CTG IC90” value (IRAK4) was “approximately 70%”.
